This note sets out measurements from patent US20100029554A1, “Composition and Methods for Treatment of Congestive Heart Failure” (Amylin Pharmaceuticals, Inc., priority 2006, published 2010).

The term EC50 denotes the midpoint of the concentration-response curve. What is called IC50 is the point on the concentration scale where inhibition reaches its midpoint. The low end stands for higher potency, the high end for lower potency.

Where a SMILES comes first, the peptide text is derived from it. Where no end group is shown, it is not given here. [ ]: non-standard residue; d: D form. Gly(octyl) = CCCCCCCC[C@H](N)C(=O)O

One series deals with NH/Swiss mice. The experiment in a line: Glucose lowering assay. Type of series: in vivo, mouse. The conditions noted are these: IP, 2 nmol/kg, change in blood glucose relative to vehicle. How it is done:
Female NH/Swiss mice (˜8-20 weeks of age), (Harlan, Indianapolis, Ind., USA), housed 3 mice per cage, are allowed ad libitum access to food and water until the start of the experiment. At two hours prior to treatment, access to food is restricted.
At the time of treatment, the tip of the tail is pricked with a needle to obtain 1 μl blood as a “pre-treatment” control blood sample. Immediately thereafter, each mouse is injected intraperitoneally (IP) with a test sample (1 nmol/kg or 2 nmol/kg) or 200 μl vehicle (10% DMSO saline). Additional blood samples are collected at 30, 60, 120, 180, and 240 minutes after injection.
Blood glucose is measured with a glucose oxidase biosensor (OneTouch® Ultra® (LifeScan, Inc., a Johnson & Johnson Company, Milpitas, Calif.)). At each time point, the effect of the test sample is expressed as the percent change in blood glucose relative to mice injected with vehicle only. Test samples and vehicle controls are also compared to their respective “pre-treatment” controls.
Significant test sample effects are identified by ANOVA (p<0.05). Where a significant difference existed, test means are compared to the control mean with Dunnett's post test using GraphPad Prism version 4.00 for Windows, GraphPad Software, San Diego Calif. USA, www.graphpad.com).

A further series in a line: Plasma stability. Type of series: in vitro ADME. Particulars: 20 μg/mL in plasma, 37° C., 0-5 hours. Here is the method: To assess stability, the compound of interest is spiked into plasma at a concentration of 20 μg/mL. It is incubated at 37° C. for 0, 1, 2 3, 4, 5 hours in triplicate. At each time point, MeOH is added to a 96 well microtiter plate and then sample is added in a ratio of 1 part sample to 4 parts MeOH to quench the digestion reaction. Samples are mixed with multi-channel pipette or liquid handler. The plate is then centrifuged for 10 minutes and placed in an autosampler kept at 10° C. Samples are then injected into a mass spectrometer (API 3000, Applied Biosystems) equipped with an autosampler (Leap HTC Pal) and HPLC pumps (Shimadzu LC-10ADVP).

Series [1] concerns GLP/GIP/CT cyclase, RIN-m5F cells. The experiment in a line: GLP/GIP/CT Cyclase (RIN) assay. The conditions noted are these: cAMP, values without **. The format is cell-based, rat. Here is the method: GLP/GIP/CT Cyclase (RIN) Assay
Five μl of serially diluted peptides are transferred to the 384-well assay plate. Rat pancreas insulinoma cells (RIN-m5F) are detached from a tissue culture flask with Versene and washed once in buffer. Then RIN-m5F cells are resusupended in buffer at 2.5×10^6 cells/ml. Then 10 μl cells (2.5×10^4 cells) are added to all wells of the assay plate and cells are stimulated at room temperature in the dark for 30 minutes. The reaction is terminated with 10 μl of lysis buffer and incubated at room temperature for 4 hrs in the dark. cAMP content is measured using Perkin Elmer AlphaScreen™ cAMP assay kit and results are read on a Perkin Elmer Fusion fluorometer. The assay is completed in 384-well plates at 25 microliter volumes.

Series [2] deals with T1, GLP-1 receptor, endogenous in RINm5f cells (rat (RIN-m5F are called rat pancreas …, UniProt P32301 22-463)).
T1 construct: whole, on cells; also called GLP-1 receptors; GLP (RIN)
T1 sequence (looked up): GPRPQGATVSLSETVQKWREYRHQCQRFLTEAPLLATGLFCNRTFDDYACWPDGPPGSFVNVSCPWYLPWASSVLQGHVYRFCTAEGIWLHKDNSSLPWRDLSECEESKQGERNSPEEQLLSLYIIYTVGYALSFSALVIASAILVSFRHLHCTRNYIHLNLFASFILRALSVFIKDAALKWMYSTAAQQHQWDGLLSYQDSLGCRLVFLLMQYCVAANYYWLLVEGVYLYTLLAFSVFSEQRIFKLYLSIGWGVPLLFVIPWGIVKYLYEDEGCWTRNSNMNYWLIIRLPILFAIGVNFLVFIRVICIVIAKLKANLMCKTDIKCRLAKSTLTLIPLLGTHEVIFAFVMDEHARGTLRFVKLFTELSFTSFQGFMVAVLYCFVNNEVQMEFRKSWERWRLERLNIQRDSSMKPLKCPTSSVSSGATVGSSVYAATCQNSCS
The experiment in a line: 125I-GLP-1 displacement, RINm5f membranes.

In series [3] the target is T1, GLP-1 receptor, endogenous in RINm5f …. Briefly: cell-based or functional assay.

On to `CC[C@H](C)[C@H](NC(=O)[C@H](Cc1ccccc1)NC(=O)[C@H](CC(C)C)NC(=O)[C@H](CCCNC(=N)N)NC(=O)[C@H](C)NC(=O)[C@H](C)NC(=O)[C@H](CCC(=O)O)NC(=O)[C@H](CCC(=O)O)NC(=O)[C@H](CCC(=O)O)NC(=O)[C@H](CC(C)C)NC(=O)[C@H](Cc1ccc(O)cc1)NC(=O)[C@H](CO)NC(=O)[C@H](CO)NC(=O)[C@@H](NC(=O)[C@H](CC(=O)O)NC(=O)[C@H](CC(N)=O)NC(=O)[C@@H](NC(=O)[C@H](Cc1ccc(O)cc1)NC(=O)[C@@H](NC(=O)CNC(=O)[C@H](CCC(=O)O)NC(=O)CNC(=O)[C@@H](N)Cc1c[nH]cn1)[C@@H](C)O)[C@@H](C)O)C(C)C)C(=O)N[C@@H](CCC(=O)O)C(=O)N[C@@H](Cc1c[nH]c2ccccc12)C(=O)N[C@@H](CC(C)C)C(=O)N[C@@H](CCCCN)C(=O)N[C@@H](CCC(N)=O)C(=O)NCC(=O)NCC(=O)N1CCC[C@H]1C(=O)N[C@@H](CO)C(=O)N[C@@H](CO)C(=O)NCC(=O)N[C@@H](C)C(=O)N1CCC[C@H]1C(=O)N1CCC[C@H]1C(=O)N1CCC[C@H]1C(=O)N[C@@H](CO)C(N)=O` [Cmpd 5182], for which the “GLU LOWERING AUC240 @2 nmol/kg” value in the series on NH/Swiss mice is given as −16%. In addition, the “plasma stability as compared to native GLP-1” value in “Plasma stability” is on record as “increased plasma stability”; in “Plasma stability” (second, narrower list of b152), “increased plasma stability”.
For `CCCCCCCC[C@H](NC(=O)[C@H](CCCCN)NC(=O)[C@H](CCCCN)NC(=O)[C@@H]1CCCN1C(=O)[C@H](CCCCN)NC(=O)CNC(=O)[C@H](CC(N)=O)NC(=O)[C@H](CCCCN)NC(=O)[C@H](CC(C)C)NC(=O)[C@H](Cc1c[nH]c2ccccc12)NC(=O)[C@H](CCC(=O)O)NC(=O)[C@@H](NC(=O)[C@H](Cc1ccccc1)NC(=O)[C@H](CC(C)C)NC(=O)[C@H](CCCNC(=N)N)NC(=O)[C@@H](NC(=O)[C@H](C)NC(=O)[C@H](CCC(=O)O)NC(=O)[C@H](CCC(=O)O)NC(=O)[C@H](CCC(=O)O)NC(=O)[C@H](C)NC(=O)[C@H](CCC(N)=O)NC(=O)[C@H](CCCCN)NC(=O)[C@H](CO)NC(=O)[C@H](CC(C)C)NC(=O)[C@H](CC(=O)O)NC(=O)[C@H](CO)NC(=O)[C@@H](NC(=O)[C@H](Cc1ccccc1)NC(=O)[C@@H](NC(=O)CNC(=O)[C@H](CCC(=O)O)NC(=O)CNC(=O)[C@@H](N)Cc1c[nH]cn1)[C@@H](C)O)[C@@H](C)O)C(C)C)[C@@H](C)CC)C(=O)N[C@@H](CCCNC(=N)N)C(=O)N[C@@H](Cc1ccc(O)cc1)C(=O)N[C@@H](CO)C(=O)O` [Cmpd 5268] (H-HGEGTFTSDLSKQAEEEAVRLFIEWLKNGKPKK[Gly(octyl)]RYS-OH; N-terminus assumed), the “GLU LOWERING AUC240 @2 nmol/kg” value in the series with NH/Swiss mice was −8%. The molecule also registered an EC50 in series [1] of 0.489 nM.
The matching figures for `CCCCCCCC[C@H](NC(=O)[C@H](CCCCN)NC(=O)[C@H](CCCCN)NC(=O)[C@@H]1CCCN1C(=O)[C@H](CCCCN)NC(=O)CNC(=O)[C@H](CC(N)=O)NC(=O)[C@H](CCCCN)NC(=O)[C@H](CC(C)C)NC(=O)[C@H](Cc1ccccc1)NC(=O)[C@H](CCC(=O)O)NC(=O)[C@@H](NC(=O)[C@H](Cc1ccccc1)NC(=O)[C@H](CC(C)C)NC(=O)[C@H](CCCNC(=N)N)NC(=O)[C@@H](NC(=O)[C@H](C)NC(=O)[C@H](CCC(=O)O)NC(=O)[C@H](CCC(=O)O)NC(=O)[C@H](CCC(=O)O)NC(=O)[C@H](CC(C)C)NC(=O)[C@H](CCC(N)=O)NC(=O)[C@H](CCCCN)NC(=O)[C@H](CO)NC(=O)[C@H](CC(C)C)NC(=O)[C@H](CC(=O)O)NC(=O)[C@H](CO)NC(=O)[C@@H](NC(=O)[C@H](Cc1ccccc1)NC(=O)[C@@H](NC(=O)CNC(=O)[C@H](CCC(=O)O)NC(=O)CNC(=O)[C@@H](N)Cc1c[nH]cn1)[C@@H](C)O)[C@@H](C)O)C(C)C)[C@@H](C)CC)C(=O)N[C@@H](CCCNC(=N)N)C(=O)N[C@@H](Cc1ccc(O)cc1)C(=O)N[C@@H](CO)C(=O)O` [Cmpd 5269]: −14% and 1.31 nM.
`CC[C@H](C)[C@H](NC(=O)[C@H](Cc1ccccc1)NC(=O)[C@H](CC(C)C)NC(=O)[C@H](CCCNC(=N)N)NC(=O)[C@@H](NC(=O)[C@H](C)NC(=O)[C@H](CCC(=O)O)NC(=O)[C@H](CCC(=O)O)NC(=O)[C@H](CCC(=O)O)NC(=O)[C@H](CC(C)C)NC(=O)[C@H](Cc1ccc(O)cc1)NC(=O)[C@H](CCC(=O)O)NC(=O)[C@@H](NC(=O)[C@@H](NC(=O)[C@H](CC(=O)O)NC(=O)[C@H](CC(N)=O)NC(=O)[C@@H](NC(=O)[C@H](Cc1ccc(O)cc1)NC(=O)[C@@H](NC(=O)CNC(=O)[C@H](CCC(=O)O)NC(=O)CNC(=O)[C@@H](N)Cc1c[nH]cn1)[C@@H](C)O)[C@@H](C)O)C(C)C)[C@@H](C)O)C(C)C)C(=O)N[C@@H](CCC(=O)O)C(=O)N[C@@H](Cc1c[nH]c2ccccc12)C(=O)N[C@@H](CC(C)C)C(=O)N[C@@H](CCCCN)C(=O)N[C@@H](CC(N)=O)C(=O)NCC(=O)NCC(=O)N1CCC[C@H]1C(=O)N[C@@H](CO)C(=O)N[C@@H](CO)C(=O)NCC(=O)N[C@@H](C)C(=O)N1CCC[C@H]1C(=O)N1CCC[C@H]1C(=O)N1CCC[C@H]1C(=O)N[C@@H](CO)C(N)=O` [Cmpd 5271]: in the series on NH/Swiss mice, the “GLU LOWERING AUC240 @2 nmol/kg” value is −17%. In addition, the “plasma stability as compared to native GLP-1” value in the series “Plasma stability” is reported as “increased plasma stability”.
For the molecule “HGEGTFTSDLSKQLEEKAAKEFIEWLIQGGPSKEIIS-OH [Cmpd 5101]”, the “GLU LOWERING AUC240 @2 nmol/kg” value in the series on NH/Swiss mice was −10%. The same molecule came in with an EC50 in series [1] of 0.863 nM. Further, the “plasma stability as compared to native GLP-1” value in “Plasma stability” is “increased plasma stability”; in the series “Plasma stability” (second, narrower list of b152) it was “increased plasma stability”.

B1: Cmpd 5099 (peptide)
peptide: HGEGTFTSDVTQQLEEEAVRLFIEWLKQGGPSSGAPPPS-NH2
In series [2], B1 yielded an IC50 of 5 nM. The “cAMP, CYCLASE GLP/GIP/CT (RIN) EC50” value in series [3] came to 1.29 nM.

B2: Cmpd 5052 (peptide)
peptide: HGEGTFTSDLVKILEAEAVRKFIEFLKN-NH2
The molecule B2 returned an IC50 in series [2] of 0.56 nM. Also, in series [3], the “cAMP, CYCLASE GLP/GIP/CT (RIN) EC50” value came out at 4.5 nM.

B3: Cmpd 5183 (peptide)
peptide: HGEGTYTNDVSSYLEGQAARLFIEWLQGGPSSGAPPPS-NH2
modifications: also: table prints an unexplained underscore after L26
In series [2], B3 registered an IC50 of 0.31 nM. For the same molecule, the “cAMP, CYCLASE GLP/GIP/CT (RIN) EC50” value in series [3] stood at 0.21 nM.
